“Also recorded” adds a separate entry of the source. Where no end group is shown, it is not given here.
Tests used:
CRFR1 = conditions: cited from earlier work
rCRFR1 [1] = target: T1, rCRFR1 (Rattus norvegicus, UniProt P35353); assay: Competition binding scintillation proximity assay, rCRFR1 membranes; conditions: for selectivity for CRFR1: CRFR1 vs CRFR2, in words
T1 construct: expressed in transfected cells
T1 sequence (P35353 24-415): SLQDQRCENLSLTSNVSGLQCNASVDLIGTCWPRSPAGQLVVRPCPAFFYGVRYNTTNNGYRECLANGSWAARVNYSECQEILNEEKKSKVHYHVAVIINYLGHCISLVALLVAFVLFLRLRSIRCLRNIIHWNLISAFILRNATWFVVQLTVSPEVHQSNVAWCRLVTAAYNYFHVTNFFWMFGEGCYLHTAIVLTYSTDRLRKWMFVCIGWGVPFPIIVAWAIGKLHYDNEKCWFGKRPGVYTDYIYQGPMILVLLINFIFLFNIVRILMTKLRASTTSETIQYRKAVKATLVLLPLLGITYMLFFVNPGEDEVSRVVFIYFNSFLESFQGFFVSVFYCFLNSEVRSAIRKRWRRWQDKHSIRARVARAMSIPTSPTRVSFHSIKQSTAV
Method: (§1) Crude membrane fractions were prepared from human embryonic kidney (HEK) 293 cells stably expressing either cloned rat CRFR1α(rCRFR1) or mouse CRFR2β (mCRFR2β) as described (20). Rat CRFBP (rCRFBP) was produced in HEK 293 cells stably transfected with cDNA coding for rCRFBP C-terminally fused with a His6 sequence as described (36). The scintillation proximity assays (SPA) for binding analysis of CRFR and CRFBP have been already described in detail (21, 22). For competition binding assays of rCRFR1 and rCRFBP, [^125I-Tyr^0]h/rCRF was used as radiolabeled peptide, whereas [^125I-Tyr^0]Svg was employed for mCRFR2β.

[2] = format: physicochemical
Method: A high solubility under physiological conditions is a crucial prerequisite especially for compounds to be injected into the rodent brain. […] Both peptides were soluble in a concentration range of up to 1000 μM (FIG. 6), so that there was no limitation in view of the agonist doses typically used in behavioral experiments. […] Consequently, solutions of cortagine to be used in the pharmacological assays were prepared in phosphate buffered saline (PBS; pH=7.4).

rCRFR1 [3] = target: T1, rCRFR1; assay: Agonist-induced intracellular cAMP accumulation in HEK 293 cells producing rCRFR1; format: cell-based; conditions: ratio of biological potencies (cAMP)
Method: The biological potency of cortagine and OCRF was evaluated by the determination of the EC50 values for agonist-induced intracellular accumulation of cAMP in HEK 293 cells producing either rCRFR1 or mCRFR2β.
The HEK 293 cells were plated into 24 well cell culture plates and stimulated as described (21) using increasing concentrations of the agonists under investigation. Intracellular cAMP was measured with the Biotrak™ cAMP [^125I] SPA system (Amersham Pharmacia Biotech) according to the manufacturer's product manual.

[4] = Maximum solubility in aCSF by amino acid analysis; format: physicochemical; conditions: aCSF, pH 7.4; read-out: maximal solubility cmax
Method: After dissolving the peptides in artificial cerebrospinal fluid (aCSF; 124 mM NaCl, 26.4 mM NaHCO3, 10 mM glucose, 3.3 mM KCl, 2.5 mM CaCl2 , 2.4 mM MgSO4 , 1.2 mM KH2PO4) at pH=7.4, the maximum solubility cmax was determined by amino acid analysis as described (21). The isoelectric point of the peptides was determined by isoelectric focusing (IEF) as described (21) with a Bio-Rad IEF cell system using Bio-Rad IEF strips in the pH range 3-10.

mCRFR2β = target: T2, mCRFR2β (Mus musculus, UniProt Q60748); assay: Competition binding scintillation proximity assay, mCRFR2β membranes; conditions: for affinity for CRFR2: binding analysis, in words
T2 construct: expressed in transfected cells
Method: as §1

rCRFBP = target: T3, rCRFBP (Rattus norvegicus, UniProt P24388); assay: Competition binding scintillation proximity assay, rCRFBP; conditions: binding analysis, in words
T3 construct: His6 (C); made in house; host or cells: HEK 293 cells, stably transfected
T3 sequence (P24388 25-322): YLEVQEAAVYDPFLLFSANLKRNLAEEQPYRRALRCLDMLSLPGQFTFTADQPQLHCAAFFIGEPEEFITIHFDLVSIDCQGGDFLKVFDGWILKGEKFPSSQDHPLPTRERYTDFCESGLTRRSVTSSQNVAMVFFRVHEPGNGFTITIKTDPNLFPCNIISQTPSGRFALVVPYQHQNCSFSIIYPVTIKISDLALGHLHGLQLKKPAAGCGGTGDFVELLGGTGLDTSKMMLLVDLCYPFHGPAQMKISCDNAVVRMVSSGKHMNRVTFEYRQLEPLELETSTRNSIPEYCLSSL
Method: as §1

C57BL/6J mice = assay: Elevated plus-maze test, intraseptal (i.s.) injection; format: in vivo, mouse; conditions: 400 ng aSvg-30 i.s. 15 min before oCRF
Method: Nine-week old male C57BL/6J (Centre D'Elevage Janvier, Sultzfeld, France) were individually housed in macrolon cages according to the recommendations of the Society for Laboratory Animal Science (Germany). All experiments were carried out in accordance with the European Council Directive (86/609/EEC) with the permission of the Animal Protection Law enforced by the District Government of Braunschweig, State of Lower Saxony, Germany, which is in full agreement with the APA ethical guidelines. All efforts were made to minimize animal suffering. The number of mice per group was 9-11.
All peptides were dissolved in aCSF except for the CRFR2-selective antagonist antisauvagine-30 (aSvg-30) (20) that was initially dissolved in 10 mM aqueous acetic acid and diluted with the same volume of two-fold concentrated aCSF. The final pH of the peptide solutions was 7.4. The exact peptide concentration of the injection solutions was determined by amino acid analysis with a Beckman HPLC analyzer system 6300. […]
The elevated plus-maze (EPM) behavior of C57BL/6J mice cannulated in the lateral ventricles or lateral intermediate septal area (23) was investigated 30 min after injection of the CRFR1 agonist under investigation for 5 min in the EPM test (24). […] The behavior of the mice was recorded by a video camera connected to a PC and analyzed by the Technical & Scientific Equipment software VIDEOMOT 2. […]

T2 sequence (Q60748 1-431 isoform Q60748-2): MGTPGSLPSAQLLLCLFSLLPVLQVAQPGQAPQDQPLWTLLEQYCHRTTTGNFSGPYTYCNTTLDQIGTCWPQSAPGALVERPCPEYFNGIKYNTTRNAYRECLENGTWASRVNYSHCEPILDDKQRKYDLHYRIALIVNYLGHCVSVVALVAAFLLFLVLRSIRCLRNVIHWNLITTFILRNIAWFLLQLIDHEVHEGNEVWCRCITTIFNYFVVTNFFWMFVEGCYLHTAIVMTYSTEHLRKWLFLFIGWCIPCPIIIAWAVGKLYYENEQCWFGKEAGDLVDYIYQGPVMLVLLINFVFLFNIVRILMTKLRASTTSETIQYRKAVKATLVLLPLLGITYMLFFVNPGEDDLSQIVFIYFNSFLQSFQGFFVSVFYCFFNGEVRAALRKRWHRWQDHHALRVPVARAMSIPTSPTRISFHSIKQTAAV

CCCCN(CC)c1nc(C)nc2c1c(C)cn2-c1c(C)cc(C)cc1C [CP-154,526]
locomotion in the EPM test (CRFR1): nonspecific increase in locomotion

CC[C@H](C)[C@H](NC(=O)[C@@H](NC(=O)[C@H](CC(=O)O)NC(=O)[C@H](CC(C)C)NC(=O)[C@H](CC(C)C)NC(=O)[C@H](CC(C)C)NC(=O)[C@H](CCCNC(=N)N)NC(=O)[C@H](CC(N)=O)NC(=O)[C@H](CC(N)=O)NC(=O)[C@H](C)NC(=O)[C@H](C)NC(=O)[C@H](CCC(N)=O)NC(=O)[C@H](CCC(N)=O)NC(=O)[C@H](CCCCN)NC(=O)[C@H](CCC(=O)O)NC(=O)[C@H](CCCCN)NC(=O)[C@H](CCC(=O)O)NC(=O)[C@H](CCC(N)=O)NC(=O)[C@H](CCCCN)NC(=O)[C@H](CCC(=O)O)NC(=O)[C@@H](NC(=O)[C@H](CCC(=O)O)NC(=O)[C@@H](NC(=O)[C@H](CCSC)NC(=O)[C@H](CCCCN)NC(=O)[C@H](CCCNC(=N)N)NC(=O)[C@H](CC(C)C)NC(=O)[C@H](CC(C)C)NC(=O)[C@H](CCC(=O)O)NC(=O)[C@H](CC(C)C)NC(=O)[C@H](CO)NC(=O)[C@H](CC(C)C)NC(=O)[C@H](CC(=O)O)NC(=O)[C@@H](NC(=O)[C@H](CO)NC(=O)[C@@H](NC(=O)[C@@H]1CCCN1C(=O)[C@@H]1CCCN1C(=O)CNC(=O)[C@@H]1CCC(=O)N1)[C@@H](C)CC)[C@@H](C)CC)[C@@H](C)CC)[C@@H](C)CC)[C@@H](C)O)C(N)=O [Svg, sauvagine, reference compound]
selectivity for CRFR1 (rCRFR1 [1]; binding analysis): non-selective

CC[C@H](C)[C@H](NC(=O)[C@H](CC(=O)O)NC(=O)[C@H](CC(C)C)NC(=O)[C@H](CC(C)C)NC(=O)[C@H](CCCCN)NC(=O)[C@H](CCCNC(=N)N)NC(=O)[C@H](CC(N)=O)NC(=O)[C@H](CO)NC(=O)[C@H](Cc1c[nH]cn1)NC(=O)[C@H](C)NC(=O)[C@H](CCC(N)=O)NC(=O)[C@H](CCC(N)=O)NC(=O)[C@H](C)NC(=O)[C@H](CC(C)C)NC(=O)[C@H](CCC(N)=O)NC(=O)[C@H](CC(=O)O)NC(=O)[C@H](C)NC(=O)[C@H](CCCCN)NC(=O)[C@@H](NC(=O)[C@H](CCSC)NC(=O)[C@H](CCC(=O)O)NC(=O)[C@H](CC(C)C)NC(=O)[C@@H](NC(=O)[C@H](CCC(=O)O)NC(=O)[C@H](CCCNC(=N)N)NC(=O)[C@H](CC(C)C)NC(=O)[C@H](CC(C)C)NC(=O)[C@H](Cc1c[nH]cn1)NC(=O)[C@H](Cc1ccccc1)NC(=O)[C@@H](NC(=O)[C@H](CC(C)C)NC(=O)[C@H](CC(=O)O)NC(=O)[C@H](CC(C)C)NC(=O)[C@H](CO)NC(=O)[C@@H](NC(=O)[C@@H]1CCCN1C(=O)[C@@H]1CCCN1C(=O)[C@H](CCC(=O)O)NC(=O)[C@H](CCC(N)=O)NC(=O)[C@@H](N)CO)[C@@H](C)CC)[C@@H](C)O)C(C)C)[C@@H](C)O)C(=O)N[C@@H](C)C(N)=O [oCRF, ovine CRF, reference compound]
CRFR1-selectivity over CRFR2β, IC50(mCRFR2)/IC50(rCRFR1) (rCRFR1 [1]; ratio of binding affinities): 89
solubility in 10 mM aqueous acetic acid [2]: soluble in 10 mM aqueous acetic acid
CRFR1-selectivity over CRFR2β, EC50(mCRFR2)/EC50(rCRFR1) (rCRFR1 [3]): 19
solubility [4]: ≤ 1000 µM

[Ala^40] [Svg^1-12]x[h/rCRF^14-30]x[Svg^30-40] [compound 8]
selectivity for CRFR1 (rCRFR1 [1]; binding analysis): highly selective for CRFR1
change in affinity to CRFR1 in comparison to parent peptide (rCRFR1 [1]; compound 8 vs compound 6, compound 9 vs compound 8, Nle20 analog vs compound 9): more than five-fold increase
change in affinity for CRFR2 in comparison to parent peptide (mCRFR2β; compound 8 vs compound 6, compound 9 vs compound 8): only a slight increase
affinity to CRFBP (rCRFBP): high affinity

[Ala^41]h/rCRF (SEEPPISLDLTFHLLREVLEMARAEQLAQQAHSNRKLMEIA; ends and bridges not checked; UniProt P06850 154-194, looked up, variant I41A) [h/rCRF analog with Ala in position 41]
selectivity for CRFR1 in comparison to h/rCRF (rCRFR1 [1]; binding analysis): increase in CRFR1 selectivity by a factor of three

[Svg^1-12 ]x[h/rCRF^14-30]x[Svg^30-40] (QGPPISIDLSLELLREVLEMARAEQLAQQAANNRLLLDTI; not fully specified (residue 1); ends and bridges not checked) [compound 6]
selectivity for CRFR1 (rCRFR1 [1]; binding analysis): selective for CRFR1
affinity for CRFR2 (mCRFR2β): low affinity to CRFR2

[Svg^1-29]x[h/rCRF^31-41] (QGPPISIDLSLELLRKMIEIEKQEKEKQQAHSNRKLMEII; ends and bridges not checked) [compound 7, chimeric peptide of h/rCRF and Svg domains]
selectivity for CRFR1 (rCRFR1 [1]; binding analysis): not

[h/rCRF^1-13]x[Svg^13-29]x[h/rCRF^31-41] (SEEPPISLDLTFHLLRKMIEIEKQEKEKQQAHSNRKLMEII; ends and bridges not checked) [compound 4, chimeric peptide of h/rCRF and Svg domains]
selectivity for CRFR1 (rCRFR1 [1]; binding analysis): not
affinity for CRFR2 (mCRFR2β): not

[h/rCRF^1-30]x[Svg^30-40] (SEEPPISLDLTFHLLREVLEMARAEQLAQQAANNRLLLDTI; ends and bridges not checked) [compound 5, chimeric peptide of h/rCRF and Svg domains]
selectivity for CRFR1 (rCRFR1 [1]; binding analysis): clear selectivity for CRFR1
affinity for CRFR2 (mCRFR2β): low affinity

anti-sauvagine-30 [aSvg-30]
antagonism of anxiogenic effects of 100 ng oCRF (C57BL/6J mice): completely prevented; also recorded: fully antagonized
